Among the data in patent US7470684B2, “Spiropiperidine derivatives as NK3 antagonists” (Hoffmann-La Roche Inc., priority 2007, dated 2008) are Ki values, retold here.

Each structure is given as a SMILES string. pKi: −log10 of the molar value.

For the first assay, the target named is T1, human NK3 receptor (Homo sapiens, UniProt P29371).
T1 construct: expressed in transfected cells; host or cells: HEK293 cells, transiently transfected; membranes
T1 sequence (P29371 1-465): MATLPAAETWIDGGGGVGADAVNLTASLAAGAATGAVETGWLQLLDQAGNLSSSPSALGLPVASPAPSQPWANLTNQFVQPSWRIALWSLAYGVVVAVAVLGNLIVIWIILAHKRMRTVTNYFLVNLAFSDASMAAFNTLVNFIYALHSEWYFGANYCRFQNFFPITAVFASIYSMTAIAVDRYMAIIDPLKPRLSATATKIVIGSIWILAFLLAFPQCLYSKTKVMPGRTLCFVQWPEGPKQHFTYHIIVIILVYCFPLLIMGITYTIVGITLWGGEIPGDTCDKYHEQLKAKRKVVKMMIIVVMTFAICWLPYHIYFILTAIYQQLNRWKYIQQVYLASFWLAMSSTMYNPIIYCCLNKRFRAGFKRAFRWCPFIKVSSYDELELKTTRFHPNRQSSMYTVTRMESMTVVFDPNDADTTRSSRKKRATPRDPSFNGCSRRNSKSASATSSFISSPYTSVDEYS
The assay is described as follows: [3H]SR142801 competition binding assay.
Conditions: not given
On the procedure: [^3H]SR142801 Competition Binding Assay
hNK3 receptor binding experiment were performed using [^3H]SR142801 (Catalog No. TRK1035, specific activity: 74.0 Ci/mmol, Amersham, GE Healthcare UK limited, Buckinghamshire, UK) and membrane isolated from HEK293 cells transiently expressing recombinant human NK3 receptor. After thawing, the membrane homogenates were centrifuged at 48,000×g for 10 min at 4° C., the pellets were resuspended in the 50 mM Tris-HCl, 4 mM MnCl2, 1 μM phosphoramidon, 0.1% BSA binding buffer at pH 7.4 to a final assay concentration of 5 μg protein/well. For inhibition experiments, membranes were incubated with [^3H]SR142801 at a concentration equal to KD value of radioligand and 10 concentrations of the inhibitory compound (0.0003-10 μM) (in a total reaction volume of 500 μl) for 75 min at room temperature (RT). At the end of the incubation, membranes were filtered onto unitfilter (96-well white microplate with bonded GF/C filter preincubated 1 h in 0.3% PEI+0.3% BSA, Packard BioScience, Meriden, Conn.) with a Filtermate 196 harvester (Packard BioScience) and washed 4 times with ice-cold 50 mM Tris-HCl, pH 7.4 buffer. Nonspecific binding was measured in the presence of 10 μM SB222200 for both radioligands. The radioactivity on the filter was counted (5 min) on a Packard Top-count microplate scintillation counter with quenching correction after addition of 45 μl of microscint 40 (Canberra Packard S.A., Zürich, Switzerland) and shaking for 1 h. Inhibition curves were fitted according to the Hill equation: y=100/(1+(x/IC50)^nH), where nH=slope factor using Excel-fit 4 software (Microsoft). IC50 values were derived from the inhibition curve and the affinity constant (Ki) values were calculated using the Cheng-Prussoff equation Ki=IC50/(1+[L]/KD) where [L] is the concentration of radioligand and KD is its dissociation constant at the receptor, derived from the saturation isotherm. All experiments were performed in duplicate and the mean±standard error (SEM) of the individual Ki values was calculated.
For `CN(Cc1ccc(Cl)cc1)C(=O)C(CCN1CCC2(CC1)OC(=O)N(C)c1ccc(F)cc12)c1ccc(Cl)c(Cl)c1` (centres unmarked) [Example 42, N-(4-chlorobenzyl)-2-(3,4-dichlorophenyl)-4-(6-fluoro-1-methyl-2-oxo-1,2-dihydro-1′H-spiro[3,1-benzoxazine-4,4′-piperidin]-1′-yl)-N-methylbutanamide], the pKi (in general, the Ki on a negative log10 scale, so that one unit is a factor of ten) is 9.10.

`CN1C(=O)OC2(CCN(CCC(C(=O)N3CCC(F)CC3)c3ccc(Cl)c(Cl)c3)CC2)c2cc(F)ccc21` (centres unmarked) [Example 43, 1′-[3-(3,4-dichlorophenyl)-4-(4-fluropiperidin-1-yl)-4-oxobutyl]-6-fluoro-1-methylspiro[3,1-benzoxazine-4,4′-piperidin]-2(1H)-one] had a pKi of 7.21.

As for `O=C1Nc2ccc(F)cc2C2(CCN(CCC(C(=O)NCc3cccc(C(F)(F)F)c3)c3ccc(F)cc3)CC2)O1` (centres unmarked) [Example 61, 4-(6-fluoro-2-oxo-1,2-dihydro-1′H-spiro[3,1-benzoxazine-4,4′-piperidin]-1′-yl)-2-(4-fluorophenyl)-N-[3-(trifluoromethyl)benzyl]butanamide], the pKi was 7.05.

Staying with this assay, now noted: [3H]SR142801 displacement, membranes of HEK293 cells transiently expressing recombinant human NK3 receptor; read-out: hNK3 Ki.
For `O=C1Nc2ccc(F)cc2C2(CCN(CCC(C(=O)NCc3ccc(Cl)cc3Cl)c3ccc(Cl)c(Cl)c3)CC2)O1` (centres unmarked) [Example 62, N-(2,4-dichlorobenzyl)-2-(3,4-dichlorophenyl)-4-(6-fluoro-2-oxo-1,2-dihydro-1′H-spiro[3,1-benzoxazine-4,4′-piperidin]-1′-yl)butanamide], the pKi was 8.00.

`CN(CCc1ccccc1)C(=O)C(CCN1CCC2(CC1)OC(=O)Nc1ccc(F)cc12)c1ccc(Cl)c(Cl)c1` (centres unmarked) [Example 65, 2-(3,4-dichlorophenyl)-4-(6-fluoro-2-oxo-1,2-dihydro-1′H-spiro[3,1-benzoxazine-4,4′-piperidin]-1′-yl)-N-methyl-N-(2-phenylethyl)butanamide]: the pKi is 7.15.

As for `CN(Cc1ccc(N2CCOCC2)cc1)C(=O)C(CCN1CCC2(CC1)OC(=O)Nc1ccc(F)cc12)c1ccc(Cl)c(Cl)c1` (centres unmarked) [Example 70, 2-(3,4-dichlorophenyl)-4-(6-fluoro-2-oxo-1,2-dihydro-1′H-spiro[3,1-benzoxazine-4,4′-piperidin]-1′-yl)-N-methyl-N-(4-morpholin-4-ylbenzyl)butanamide], the pKi was 7.01.

As to `CN(Cc1ccc(-c2ccncc2)cc1)C(=O)C(CCN1CCC2(CC1)OC(=O)Nc1ccc(F)cc12)c1ccc(Cl)c(Cl)c1` (centres unmarked) [Example 72, 2-(3,4-dichlorophenyl)-4-(6-fluoro-2-oxo-1,2-dihydro-1′H-spiro[3,1-benzoxazine-4,4′-piperidin]-1′-yl)-N-methyl-N-(4-pyridin-4-ylbenzyl)butanamide], the pKi was 7.73.

The same assay, now with this note: hNK3 Ki, [3H]SR142801 displacement, membranes of HEK293 cells transiently expressing recombinant human NK3 receptor.
Turning to `CCN(Cc1ccc(C)cc1)C(=O)C(CCN1CCC2(CC1)OC(=O)N(C)c1ccc(F)cc12)c1ccc(Cl)c(Cl)c1` (centres unmarked) [Example 39, 2-(3,4-dichlorphenyl)-N-ethyl-4-(6-fluoro-1-methyl-2-oxo-1,2-dihydro-1′H-spiro[3,1-benzoxazine-4,4′-piperidin]-1′-yl)-N-(4-methylbenzyl)butanamide], the pKi was 8.38.

As for `CN(Cc1cccc(Cl)c1)C(=O)C(CCN1CCC2(CC1)OC(=O)N(C)c1ccc(F)cc12)c1ccc(Cl)c(Cl)c1` (centres unmarked) [Example 40, N-(3-chlorobenzyl)-2-(3,4-dichlorophenyl)-4-(6-fluoro-1-methyl-2-oxo-1,2-dihydro-1′H-spiro[3,1-benzoxazine-4,4′-piperidin]-1′-yl)-N-methylbutanamide], the pKi is 8.96.

For the molecule `CN(Cc1ccccc1Cl)C(=O)C(CCN1CCC2(CC1)OC(=O)N(C)c1ccc(F)cc12)c1ccc(Cl)c(Cl)c1` (centres unmarked) [Example 44, N-(2-chlorobenzyl)-2-(3,4-dichlorophenyl)-4-(6-fluoro-1-methyl-2-oxo-1,2-dihydro-1′H-spiro[3,1-benzoxazine-4,4′-piperidin]-1′-yl)-N-methylbutanamide], the pKi is 8.80.

Consider `O=C1Nc2ccc(F)cc2C2(CCN(CCC(C(=O)NCc3ccc(Cl)cc3Cl)c3ccc(F)cc3)CC2)O1` (centres unmarked) [Example 47, N-(2,4-dichlorobenzyl)-4-(6-fluoro-2-oxo-1,2-dihydro-1′H-spiro[3,1-benzoxazine-4,4′-piperidin]-1′-yl)-2-(4-fluorophenyl)butanamide], for which the negative-log Ki (pKi) was 7.08.

As for `O=C1Nc2ccc(F)cc2C2(CCN(CCC(C(=O)NCc3ccccc3OC(F)(F)F)c3ccc(F)cc3)CC2)O1` (centres unmarked) [Example 49, 4-(6-fluoro-2-oxo-1,2-dihydro-1′H-spiro[3,1-benzoxazine-4,4′-piperidin]-1′-yl)-2-(4-fluorophenyl)-N-[2-(trifluoromethoxy)benzyl]butanamide], the pKi was 7.04.

Turning to `CN(Cc1ccc(C(F)(F)F)cc1)C(=O)C(CCN1CCC2(CC1)OC(=O)Nc1ccc(F)cc12)c1ccc(F)cc1` (centres unmarked) [Example 51, 4-(6-fluoro-2-oxo-1,2-dihydro-1′H-spiro[3,1-benzoxazine-4,4′-piperidin]-1′-yl)-2-(4-fluorophenyl)-N-methyl-N-[4-(trifluoromethyl)benzyl]butanamide], the pKi was 7.49.

For the molecule `Cc1ccc(CN(C)C(=O)C(CCN2CCC3(CC2)OC(=O)Nc2ccc(F)cc23)c2ccc(F)cc2)cc1` (centres unmarked) [Example 56, 4-(6-fluoro-2-oxo-1,2-dihydro-1′H-spiro[3,1-benzoxazine-4,4′-piperidin]-1′-yl)-2-(4-fluorophenyl)-N-methyl-N-(4-methylbenzyl)butanamide], the pKi was 7.18.

Consider `CN(Cc1cccc(C(F)(F)F)c1)C(=O)C(CCN1CCC2(CC1)OC(=O)Nc1ccc(F)cc12)c1ccc(F)cc1` (centres unmarked) [Example 58, 4-(6-fluoro-2-oxo-1,2-dihydro-1′H-spiro[3,1-benzoxazine-4,4′-piperidin]-1′-yl)-2-(4-fluorophenyl)-N-methyl-N-[3-(trifluoromethyl)benzyl]butanamide], for which the pKi was 7.02.

On to `CN(Cc1ccc(F)cc1)C(=O)C(CCN1CCC2(CC1)OC(=O)Nc1ccc(F)cc12)c1ccc(F)cc1` (centres unmarked) [Example 59, N-(4-fluorobenzyl)-4-(6-fluoro-2-oxo-1,2-dihydro-1′H-spiro[3,1-benzoxazine-4,4′-piperidin]-1′-yl)-2-(4-fluorophenyl)-N-methylbutanamide], for which the pKi is 7.31.

Turning to `CN(Cc1ccccc1)C(=O)C(CCN1CCC2(CC1)OC(=O)Nc1ccc(F)cc12)c1ccc(Cl)c(Cl)c1` (centres unmarked) [Example 64, N-benzyl-2-(3,4-dichlorophenyl)-4-(6-fluoro-2-oxo-1,2-dihydro-1′H-spiro[3,1-benzoxazine-4,4′-piperidin]-1′-yl)-N-methylbutanamide], the pKi was 7.90.

Consider `O=C1Nc2ccc(F)cc2C2(CCN(CCC(C(=O)NCc3ccccc3OC(F)(F)F)c3ccc(Cl)c(Cl)c3)CC2)O1` (centres unmarked) [Example 66, 2-(3,4-dichlorophenyl)-4-(6-fluoro-2-oxo-1,2-dihydro-1′H-spiro[3,1-benzoxazine-4,4′-piperidin]-1′-yl)-N-[2-(trifluoromethoxy)benzyl]butanamide], for which the pKi is 7.54.

On to `O=C1Nc2ccc(F)cc2C2(CCN(CCC(C(=O)NCc3cccc(OC(F)F)c3)c3ccc(Cl)c(Cl)c3)CC2)O1` (centres unmarked) [Example 67, 2-(3,4-dichlorophenyl)-N-[3-(difluoromethoxy)benzyl]4-(6-fluoro-2-oxo-1,2-dihydro-1′H-spiro[3,1-benzoxazine-4,4′-piperidin]-1′-yl)butanamide], for which the pKi is 7.72.

On to `CN(Cc1ccc(C(F)(F)F)cc1)C(=O)C(CCN1CCC2(CC1)OC(=O)Nc1ccc(F)cc12)c1ccc(Cl)c(Cl)c1` (centres unmarked) [Example 68, 2-(3,4-dichlorophenyl)-4-(6-fluoro-2-oxo-1,2-dihydro-1′H-spiro[3,1-benzoxazine-4,4′-piperidin]-1′-yl)-N-methyl-N-[4-(trifluoromethyl)benzyl]butanamide], for which the pKi is 8.85.
